From US20100249248A1, “LIGAND AGENTS FOR PEROXISOME PROLIFERATOR-ACTIVATED RECEPTORS (PPARs)” (Suntory Holdings Limited, priority 2007, published 2010)
Values joined by “and” are separate entries in the source; they are usually repeats but may differ in a detail not shown here. Equal values may be shown once.

Key:
Type in all cases: cell-based
[1] = target: T1, PPARδ (Mus musculus, UniProt P35396); assay: PPARδ ligand activity, GAL4::mPPARδ luciferase reporter assay in HepG2 cells
T1 construct: expressed in transfected cells; host or cells: HepG2 cells (human liver cancer-derived)
T1 sequence (P35396 1-440): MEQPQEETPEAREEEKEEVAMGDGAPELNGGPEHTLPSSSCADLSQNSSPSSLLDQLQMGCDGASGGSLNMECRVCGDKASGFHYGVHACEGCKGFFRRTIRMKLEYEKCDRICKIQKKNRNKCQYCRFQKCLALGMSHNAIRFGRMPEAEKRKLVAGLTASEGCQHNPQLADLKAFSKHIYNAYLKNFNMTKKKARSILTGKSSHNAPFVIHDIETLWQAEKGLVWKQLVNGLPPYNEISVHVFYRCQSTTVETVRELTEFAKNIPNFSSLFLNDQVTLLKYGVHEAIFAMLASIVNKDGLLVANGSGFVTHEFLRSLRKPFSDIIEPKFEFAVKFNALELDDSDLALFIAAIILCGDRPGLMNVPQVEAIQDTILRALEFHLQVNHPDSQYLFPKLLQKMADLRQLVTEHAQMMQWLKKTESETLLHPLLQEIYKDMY
Procedure: HepG2 cells (human liver cancer-derived cultured cells) were seeded in 96-well culture plates at 1×10^4 cells/well and cultured at 37° C. under 5% CO2 for 24 hours. The medium used was RPMI1640 (Nissui Pharmaceutical Co., Ltd., Japan) containing 10% FBS (fetal bovine serum; Equitech-Bio) and 0.3 g/L L-Glutamine (Nissui Pharmaceutical Co., Ltd., Japan). These cells were washed with OPTI-MEM (Gibco) and then transfected with pBIND/GAL4::mPPARδ and pG51uc (Promega). […]
At about 24 hours after transfection, the medium was replaced with another medium containing a plant extract, followed by culturing for 24 hours. […] After washing with phosphate-buffered saline (PBS—), the cells were lysed with a cytolysis solution (Cell Culture Lysis Reagent: Promega) and measured for the luminescence intensity of luciferase with a multilabel counter (Wallac) in the presence of a Luciferase Assay Reagent (Promega). […] For assessment of ligand activity, the ratio of luminescence intensity in a sample to that in the control (vehicle control) was defined as the luminescence ratio of PPARδ ligand activity in the sample, and a sample showing a value of 1.3 or greater was determined as having PPARδ ligand activity.
The ethanol extract of each plant obtained in Sample Preparation Example 2 was measured for its PPARγ ligand activity in the same manner as shown in Example 1. […]

[2] = target: T2, PPARγ (Rattus norvegicus, UniProt O88275); assay: PPARγ ligand activity, PPRE-luciferase reporter in CHO/PPARγ/PPRE cells; details: Table 4; positive control run beside each sample; 25 μM
T2 construct: expressed in transfected cells
T2 sequence (O88275 1-505): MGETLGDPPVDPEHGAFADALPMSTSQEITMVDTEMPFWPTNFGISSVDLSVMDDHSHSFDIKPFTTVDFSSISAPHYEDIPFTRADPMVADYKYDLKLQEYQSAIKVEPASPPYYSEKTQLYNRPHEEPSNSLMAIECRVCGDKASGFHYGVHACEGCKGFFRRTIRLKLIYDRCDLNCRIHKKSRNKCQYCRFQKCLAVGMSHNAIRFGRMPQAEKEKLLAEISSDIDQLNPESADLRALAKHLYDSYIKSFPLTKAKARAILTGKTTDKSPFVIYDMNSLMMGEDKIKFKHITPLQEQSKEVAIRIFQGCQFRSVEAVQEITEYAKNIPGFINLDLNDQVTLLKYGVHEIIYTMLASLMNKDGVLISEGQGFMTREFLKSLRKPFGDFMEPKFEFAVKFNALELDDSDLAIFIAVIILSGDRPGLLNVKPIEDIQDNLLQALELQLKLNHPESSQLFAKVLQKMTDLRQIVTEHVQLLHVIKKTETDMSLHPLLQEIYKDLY
Excerpt: CHO cells used for measurement of PPARγ ligand activity were obtained in the following manner.
A PPAR reporter plasmid (pPPRE-Luc) was derived from a reporter plasmid, pGL3 (Promega), which contains the SV40 promoter gene and the firefly luciferase gene by being modified to have 3 copies of a PPAR-responsive sequence (PPRE) upstream of the SV40 promoter gene. A PPARγ expression plasmid (pKD-rPPARγ) was obtained by inserting the rat PPARγ gene into an SV40 promoter-driven expression plasmid for mammalian cells. pPPRE-Luc and pKD-rPPARγ were co-transfected into CHO(dhfr-) cells (dihydrofolate reductase-deficient cell line of Chinese hamster ovary cells) using Lipofectamine (Invitorgen). The cells were cultured in D-MEM medium (GIBCO) almost free from thymidine and containing dialyzed fetal bovine serum (GIBCO) to thereby obtain a stable transformant (CHO/PPARγ/PPRE) retaining pPPRE-Luc and pKD-rPPARγ.
The above cells were seeded in 96-well culture plates at 1×10^4 cells/well and cultured at 37° C. under 5% CO2 for 24 hours. […] After washing with phosphate-buffered saline (PBS-), the cells were lysed with a cytolysis solution (Cell Culture Lysis Reagent: Promega) and measured for the luminescence intensity of luciferase with a multilabel counter (Wallac) in the presence of a Luciferase Assay Reagent (Promega). […]

[3] = target: T3, PPARα (Mus musculus, UniProt P23204); assay: PPARα ligand activity, GAL4::mPPARα luciferase reporter assay in HepG2 cells; details: Table 3; positive control run beside each sample; 25 μM
T3 construct: expressed in transfected cells; host or cells: HepG2 cells (human liver cancer-derived)
T3 sequence (P23204 1-468): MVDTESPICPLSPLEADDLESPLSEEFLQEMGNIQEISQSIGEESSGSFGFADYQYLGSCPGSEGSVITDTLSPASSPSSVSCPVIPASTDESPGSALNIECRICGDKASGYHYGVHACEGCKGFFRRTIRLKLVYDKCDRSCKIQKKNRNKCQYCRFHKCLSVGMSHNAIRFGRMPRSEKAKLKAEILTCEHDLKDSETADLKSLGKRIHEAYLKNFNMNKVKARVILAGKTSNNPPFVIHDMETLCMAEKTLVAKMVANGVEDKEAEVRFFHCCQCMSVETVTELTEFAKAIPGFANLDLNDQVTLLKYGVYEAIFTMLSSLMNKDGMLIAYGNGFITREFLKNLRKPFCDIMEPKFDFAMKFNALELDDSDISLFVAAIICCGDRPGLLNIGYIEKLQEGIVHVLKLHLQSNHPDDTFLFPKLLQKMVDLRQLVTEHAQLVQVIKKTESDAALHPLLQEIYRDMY
Procedure: HepG2 cells (human liver cancer-derived cultured cells) were seeded in 96-well culture plates at 1×10^4 cells/well and cultured at 37° C. under 5% CO2 for 24 hours. The medium used was RPMI1640 (Nissui Pharmaceutical Co., Ltd., Japan) containing 10% FBS (fetal bovine serum; Equitech-Bio) and 0.3 […] Pharmaceutical Co., Ltd., Japan). […] At about 24 hours after transfection, the medium was replaced with another medium containing a plant extract, followed by culturing for 24 hours. As a vehicle control, DMSO was used and added in 1/100 volume to the medium. After washing with phosphate-buffered saline (PBS-), the cells were lysed with a cytolysis solution (Cell Culture Lysis Reagent: Promega) and measured for the luminescence intensity of luciferase with a multilabel counter (Wallac) in the presence of a Luciferase Assay Reagent (Promega). On the other hand, a synthetic PPARδ agonist, L-165041 (Sigma, […]), was used as a positive control. […] On the other hand, a synthetic PPARα agonist, WY-14643 (Sigma, 25 μM), was used as a positive control.

With `CCCc1c(OCCCOc2ccc(OCC(=O)O)cc2)ccc(C(C)=O)c1O` [L-165041] the “Luminescence ratio in L-165041” value ([1]; Table 5, positive control run beside each ethanol extract) was 4.5 and 4.9 and 6.1 and 6.2 and 5.2 and 4.8 and 4.7 and the “Luminescence ratio in L-165041” value ([1]; Table 6, positive control run beside each hot water extract) was 4.5 and 3.8 and 6.2 and 5.8.
With `CC1(COc2ccc(CC3SC(=O)NC3=O)cc2)CCCCC1` (stereo not shown) [Ciglitizone] the “Luminescence ratio in Ciglitizone” value [2] was 2.2 and 2.5 and 2.6 and 2.7 and 3.0 and 2.4.
In the case of `Cc1cccc(Nc2cc(Cl)nc(SCC(=O)O)n2)c1C` [WY-14643], the “Luminescence ratio in WY-14643” value [3] is reported as 4.2 and 4.4 and 7.6.
